Measurements published in publication PMC3855964, “Cysteine-10 on 17β-Hydroxysteroid Dehydrogenase 1 Has Stabilizing Interactions in the Cofactor Binding Region and Renders Sensitivity to Sulfhydryl Modifying Chemicals” (International Journal of Cell Biology, 2013).
Residue numbers refer to the chain shown, from its start. Like-named read-outs stand apart in the source and are kept apart here.

Legend:
human 17β-HSD1 = target: T1, human 17β-HSD1 (Homo sapiens, UniProt P14061); assay: 17β-HSD1 reductase activity (estrone to estradiol) in lysates of transfected HEK-293 cells; format: biochemical; conditions: for IC50 for 17β-HSD1 compared with those obtained for 11β-HSD2: simultaneous incubation with substrate and inhibitor, 11β-HSD2 values from ref 20
T1 construct: expressed in transfected cells; host or cells: HEK-293 (transient calcium phosphate transfection; cell lysates used)
T1 sequence (P14061 1-328): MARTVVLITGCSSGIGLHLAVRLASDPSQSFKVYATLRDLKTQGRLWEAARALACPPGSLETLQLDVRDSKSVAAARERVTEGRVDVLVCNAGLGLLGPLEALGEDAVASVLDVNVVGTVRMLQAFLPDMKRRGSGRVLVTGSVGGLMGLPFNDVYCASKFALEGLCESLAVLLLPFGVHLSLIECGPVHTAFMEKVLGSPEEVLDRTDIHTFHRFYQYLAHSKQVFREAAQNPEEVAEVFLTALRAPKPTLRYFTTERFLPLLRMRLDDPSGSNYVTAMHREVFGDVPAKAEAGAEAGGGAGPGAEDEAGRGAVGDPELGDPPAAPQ
Description: (§1) To determine 17β-HSD1 activity, HEK-293 cells were transfected by the calcium phosphate precipitation method. Cells were harvested 48 h after transfection, washed twice with phosphate-buffered saline (PBS), and centrifuged for 4 min at 150 ×g. Supernatants were removed and the cell pellets were quick-frozen in a dry ice-ethanol bath and stored at −80°C. The reductase activity of 17β-HSD1 was measured by incubation of cell lysates for 10 min at 37°C in the presence of 200 nM radiolabeled estrone and 400 μM NADPH in a reaction buffer containing 20% glycerol, 1 mM EDTA, and 50 mM potassium phosphate, pH 7.4. Inhibitors were diluted from stock solutions in dimethylsulfoxide (DMSO) and immediately used in the assays.
(§2) For determination of enzyme kinetics, estrone concentrations ranging from 10 to 800 nM were used. Data (mean ± SD) were obtained from three independent experiments and were calculated using the Data Analysis Toolbox (Elsevier MDL, Allschwil, Switzerland).

[1] = target: T2, Cys^10Ser mutant 17β-HSD1 (Homo sapiens, UniProt P14061, C11S); assay: Cys^10Ser mutant 17β-HSD1 reductase activity (estrone to estradiol) in lysates of transfected HEK-293 cells; format: biochemical
T2 construct: expressed in transfected cells; host or cells: HEK-293 (transient calcium phosphate transfection; cell lysates used)
T2 sequence (P14061 1-328 C11S): T1 sequence (P14061 1-328) with C11S
Description: In order to facilitate detection, an octahistidine tag was added to the C-terminus of human 17β-HSD1 by PCR amplification using oligonucleotide primers containing the tag-coding sequence (forward primer 5′-[…]-3′, reverse primer 5′-[…]-3′). […] The substitution of Cys^10 to serine was introduced into the C-terminal histidine-tagged 17β-HSD1 cDNA in Bluescript vector by site-directed mutagenesis using the forward primer 5′-[…]-3′ and the reverse primer 5′-[…]-3′ according to the Quick Change mutagenesis kit (Stratagene, Amsterdam, The Netherlands), followed by subsequent recloning into pcDNA3.1 expression plasmid.
as §1, §2

[2] = simultaneous incubation of lysates with 200 nM estrone and inhibitor, 400 μM NADPH, 10 min, 37°C, read-out: IC50

| Compound | IC50 (human 17β-HSD1; [2]) [µM] | IC50 for 17β-HSD1 compared with those obtained for 11β-HSD2 (human 17β-HSD1) | further results |
| --- | --- | --- | --- |
| CCN1C(=O)C=CC1=O [NEM, N-ethylmaleimide] | 22 ± 6 |  | 17β-HSD1 activity after preincubation with inhibitor (human 17β-HSD1; preincubation of lysates with 20 μM NEM for 1 h prior to the addition of estrone, data not shown): completely abolished; effect of preincubation with NADPH on inhibition (human 17β-HSD1; preincubation with NADPH for 15 min, NEM 60 μM, estrone 200 nM, NADPH 400 μM, concentration dependent): protected from inhibition; inhibition of wild-type enzyme relative to mutant Cys^10Ser ([1]; cell lysates, data not shown): approximately two times stronger |
| CN(C)C(=S)SSC(=S)N(C)C [thiram] | 21 ± 4 | about two orders of magnitude higher |  |
| C[C@]12CC[C@@H]3c4ccc(O)cc4CC[C@H]3[C@@H]1CCC2=O [estrone] |  |  | K m (human 17β-HSD1; wild-type, estrone 10 to 800 nM, 400 μM NADPH): 0.043 ± 0.006 µM; V max (human 17β-HSD1; wild-type, estrone 10 to 800 nM, 400 μM NADPH, normalized to protein expression): 110 ± 5 nmol/h/mg; K m ([1]; Cys^10Ser mutant, estrone 10 to 800 nM, 400 μM NADPH): 0.065 ± 0.003 µM; V max ([1]; Cys^10Ser mutant, estrone 10 to 800 nM, 400 μM NADPH, normalized to protein expression): 124 ± 3 nmol/h/mg |
| maneb | 25 ± 3 | about two orders of magnitude higher |  |
| S=C(S)NCCNC(=S)S [zineb] |  | about two orders of magnitude higher | IC50 (human 17β-HSD1): 24 ± 3 µM |
| CCN(CC)C(=S)SSC(=S)N(CC)CC [disulfiram] | 8 ± 1 | about two orders of magnitude higher |  |
